These are literature values, as cited in paper PMC13050480, “Preclinical Development of GT-14, a Novel Inhibitor of Gαi2 Protein: Comprehensive Evaluation of Physicochemical, Metabolic Characteristics and Tissue Distribution” (The AAPS journal, 2025).

SMILES strings stand for the structures.

One series deals with albumin. Set-up: method as in PMID 27106175. The note with it: cited from earlier work.
In a further series the test system is α1-acid glycoprotein. The arrangement: method as in PMID 27106175. The note with it: cited from earlier work.
The conditions of series [1]: cited from earlier work.

`C[C@]12CC[C@H](O)CC1=CC[C@@H]1[C@@H]2CC[C@]2(C)C(c3cccnc3)=CC[C@@H]12` [Abiraterone]: the protein-bound to albumin in the series with albumin is listed as 95.6–99.9%. In addition, in the series with α1-acid glycoprotein, the “protein-bound to α1-acid glycoprotein” value is given as 89.4–95.6%. For the same compound, in series [1], the “volume of distribution (Vd)” value is recorded as ~ 5630 L.
Regarding `CC(O)(CS(=O)(=O)c1ccc(F)cc1)C(=O)Nc1ccc(C#N)c(C(F)(F)F)c1` (stereo not shown) [Bicalutamide], in series [1], the half-life was 25 to 30 h; the oral bioavailability entry is “high oral bioavailability”; the “tissue distribution of [3H]-Bicalutamide” value is “preferential accumulation in the prostate, pituitary gland, and seminal vesicles, with limited brain penetration”.
Regarding `CNC(=O)c1ccc(N2C(=S)N(c3ccc(C#N)c(C(F)(F)F)c3)C(=O)C2(C)C)cc1F` [Enzalutamide], the “apparent oral volume of distribution (Vd/F)” value in series [1] is “around 110 L”.

The term half-life denotes how long it takes for the measured level to halve.
